Experimental data as given in PMC5951806, “Rapid labelling and covalent inhibition of intracellular native proteins using ligand-directed N-acyl-N-alkyl sulfonamide” (Nature Communications, 2018).

Experiments:
Assay in all cases: TMT LC-MSMS of 11-labelled proteins
Assay type in all cases: cell-based
[1] = target: T1, ADP/ATP translocase 3 (SLC25A6) (Homo sapiens, UniProt P12236)
T1 sequence (P12236 1-298): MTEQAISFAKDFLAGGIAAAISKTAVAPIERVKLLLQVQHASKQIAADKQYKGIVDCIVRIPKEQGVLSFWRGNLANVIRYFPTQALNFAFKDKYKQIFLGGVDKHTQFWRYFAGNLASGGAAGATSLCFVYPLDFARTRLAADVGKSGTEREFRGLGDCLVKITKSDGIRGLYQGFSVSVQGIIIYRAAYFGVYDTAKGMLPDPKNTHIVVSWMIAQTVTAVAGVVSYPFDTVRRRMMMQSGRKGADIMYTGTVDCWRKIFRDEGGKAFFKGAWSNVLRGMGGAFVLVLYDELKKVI

[2] = target: 2,4-dienoyl-CoA reductase, mitochondrial (DECR1) (Homo sapiens, UniProt Q16698)
Chain of 2,4-dienoyl-CoA reductase, mitochondrial (DECR1) (Q16698 35-335): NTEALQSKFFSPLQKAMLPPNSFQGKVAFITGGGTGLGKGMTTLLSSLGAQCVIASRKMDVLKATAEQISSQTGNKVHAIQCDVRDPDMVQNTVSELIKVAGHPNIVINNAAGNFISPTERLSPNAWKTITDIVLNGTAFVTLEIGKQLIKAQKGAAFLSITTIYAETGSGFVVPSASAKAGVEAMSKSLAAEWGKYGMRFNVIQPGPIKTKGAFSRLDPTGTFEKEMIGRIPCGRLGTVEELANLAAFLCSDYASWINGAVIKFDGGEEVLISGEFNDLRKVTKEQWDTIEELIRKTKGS

[3] = target: Isoform 3 of L-lactate dehydrogenase A chain (LDHA) (Homo sapiens, UniProt P00338)
[4] = target: Desmoplakin (DSP) (Homo sapiens, UniProt P15924)
Chain of Desmoplakin (DSP) (P15924 whole entry): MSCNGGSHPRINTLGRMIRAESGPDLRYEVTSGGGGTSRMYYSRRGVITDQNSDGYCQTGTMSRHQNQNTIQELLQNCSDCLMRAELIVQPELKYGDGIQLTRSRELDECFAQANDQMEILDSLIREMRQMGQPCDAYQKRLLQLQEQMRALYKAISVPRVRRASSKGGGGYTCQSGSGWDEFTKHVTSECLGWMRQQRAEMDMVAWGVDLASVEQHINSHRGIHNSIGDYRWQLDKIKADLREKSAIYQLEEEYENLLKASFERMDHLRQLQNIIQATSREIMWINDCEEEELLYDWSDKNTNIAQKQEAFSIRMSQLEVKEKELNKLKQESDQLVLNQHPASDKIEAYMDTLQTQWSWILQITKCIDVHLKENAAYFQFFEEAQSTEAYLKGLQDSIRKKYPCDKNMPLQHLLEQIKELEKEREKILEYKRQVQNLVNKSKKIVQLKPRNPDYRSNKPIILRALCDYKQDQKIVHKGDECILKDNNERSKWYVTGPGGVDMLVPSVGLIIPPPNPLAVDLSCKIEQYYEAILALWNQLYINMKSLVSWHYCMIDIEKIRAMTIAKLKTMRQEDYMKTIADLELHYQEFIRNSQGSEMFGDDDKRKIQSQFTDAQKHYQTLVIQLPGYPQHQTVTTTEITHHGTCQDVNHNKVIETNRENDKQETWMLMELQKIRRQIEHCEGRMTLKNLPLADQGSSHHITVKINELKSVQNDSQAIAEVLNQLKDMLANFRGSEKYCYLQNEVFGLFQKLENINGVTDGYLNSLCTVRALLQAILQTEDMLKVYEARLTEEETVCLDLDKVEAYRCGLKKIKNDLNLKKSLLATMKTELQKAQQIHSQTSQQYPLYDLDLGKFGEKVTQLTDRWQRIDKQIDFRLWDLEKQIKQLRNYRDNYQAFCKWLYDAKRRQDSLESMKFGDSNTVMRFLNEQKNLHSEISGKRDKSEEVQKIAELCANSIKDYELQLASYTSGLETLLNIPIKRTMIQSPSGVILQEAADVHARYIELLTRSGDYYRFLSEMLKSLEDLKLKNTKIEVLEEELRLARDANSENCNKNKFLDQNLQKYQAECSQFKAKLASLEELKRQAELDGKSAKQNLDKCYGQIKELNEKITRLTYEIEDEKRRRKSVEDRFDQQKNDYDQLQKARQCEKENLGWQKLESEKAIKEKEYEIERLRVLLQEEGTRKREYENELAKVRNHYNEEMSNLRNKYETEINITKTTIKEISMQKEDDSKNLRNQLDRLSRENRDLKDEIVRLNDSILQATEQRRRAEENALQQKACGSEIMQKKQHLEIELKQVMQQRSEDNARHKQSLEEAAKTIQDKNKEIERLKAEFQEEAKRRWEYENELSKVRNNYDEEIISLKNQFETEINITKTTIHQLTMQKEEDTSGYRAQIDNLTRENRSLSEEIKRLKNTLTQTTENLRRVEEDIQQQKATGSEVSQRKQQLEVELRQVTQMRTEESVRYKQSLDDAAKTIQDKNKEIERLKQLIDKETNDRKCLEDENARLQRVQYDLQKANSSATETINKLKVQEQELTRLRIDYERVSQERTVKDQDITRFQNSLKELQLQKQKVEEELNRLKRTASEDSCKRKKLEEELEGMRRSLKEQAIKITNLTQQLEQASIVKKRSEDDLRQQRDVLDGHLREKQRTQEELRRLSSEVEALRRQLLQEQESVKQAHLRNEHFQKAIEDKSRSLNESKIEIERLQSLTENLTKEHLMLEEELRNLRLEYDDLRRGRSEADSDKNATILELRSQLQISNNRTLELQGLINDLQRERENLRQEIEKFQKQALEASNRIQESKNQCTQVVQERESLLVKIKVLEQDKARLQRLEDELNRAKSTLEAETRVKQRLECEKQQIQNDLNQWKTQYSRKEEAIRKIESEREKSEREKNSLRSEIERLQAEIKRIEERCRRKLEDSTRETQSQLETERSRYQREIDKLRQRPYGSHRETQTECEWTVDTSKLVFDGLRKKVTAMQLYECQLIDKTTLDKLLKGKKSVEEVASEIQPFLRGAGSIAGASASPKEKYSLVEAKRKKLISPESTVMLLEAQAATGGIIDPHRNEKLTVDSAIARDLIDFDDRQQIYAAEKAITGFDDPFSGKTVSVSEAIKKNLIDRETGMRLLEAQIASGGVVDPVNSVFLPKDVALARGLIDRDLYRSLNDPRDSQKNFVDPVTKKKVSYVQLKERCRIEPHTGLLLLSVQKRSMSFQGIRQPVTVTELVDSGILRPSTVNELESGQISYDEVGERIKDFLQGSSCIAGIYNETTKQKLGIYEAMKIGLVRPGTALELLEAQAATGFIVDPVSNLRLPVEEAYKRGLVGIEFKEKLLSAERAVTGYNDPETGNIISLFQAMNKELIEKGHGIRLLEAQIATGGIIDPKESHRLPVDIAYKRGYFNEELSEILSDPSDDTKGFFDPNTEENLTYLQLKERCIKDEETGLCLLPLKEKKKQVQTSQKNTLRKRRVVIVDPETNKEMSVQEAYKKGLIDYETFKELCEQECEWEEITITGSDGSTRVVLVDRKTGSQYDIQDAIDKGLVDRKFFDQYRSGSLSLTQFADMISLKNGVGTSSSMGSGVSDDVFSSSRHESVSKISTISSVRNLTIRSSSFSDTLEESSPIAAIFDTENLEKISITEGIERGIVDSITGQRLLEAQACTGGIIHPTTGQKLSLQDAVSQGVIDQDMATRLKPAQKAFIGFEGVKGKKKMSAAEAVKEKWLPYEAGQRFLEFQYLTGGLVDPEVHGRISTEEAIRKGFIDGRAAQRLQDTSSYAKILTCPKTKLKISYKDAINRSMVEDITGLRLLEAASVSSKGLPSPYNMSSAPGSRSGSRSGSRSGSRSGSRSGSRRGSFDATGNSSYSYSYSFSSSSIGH

[5] = target: Serum albumin (ALB) (Homo sapiens, UniProt P02768)
Chain of Serum albumin (ALB) (P02768 25-609): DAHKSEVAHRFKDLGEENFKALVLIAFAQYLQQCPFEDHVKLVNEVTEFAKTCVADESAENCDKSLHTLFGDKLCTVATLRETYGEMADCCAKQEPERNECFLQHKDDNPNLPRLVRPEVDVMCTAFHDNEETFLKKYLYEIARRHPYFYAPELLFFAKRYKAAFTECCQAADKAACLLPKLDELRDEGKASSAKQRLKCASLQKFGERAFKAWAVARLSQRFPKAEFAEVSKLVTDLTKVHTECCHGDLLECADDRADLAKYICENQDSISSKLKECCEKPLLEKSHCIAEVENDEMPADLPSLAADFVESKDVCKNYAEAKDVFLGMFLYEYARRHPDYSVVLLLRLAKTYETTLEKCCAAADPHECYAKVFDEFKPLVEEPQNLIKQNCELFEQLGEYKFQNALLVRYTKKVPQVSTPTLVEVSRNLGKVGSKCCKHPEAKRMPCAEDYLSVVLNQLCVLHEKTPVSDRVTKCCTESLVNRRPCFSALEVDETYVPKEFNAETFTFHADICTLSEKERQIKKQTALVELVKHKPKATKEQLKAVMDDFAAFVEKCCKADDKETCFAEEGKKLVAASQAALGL

[6] = sheet Exp1, SKBR3 cells, 11 0.5 µM 3 h vs DMSO
[7] = sheet Exp1, SKBR3 cells, 11 0.5 µM 3 h vs with PU-H71 10 µM
[8] = sheet Merged, SKBR3 cells, 11 0.5 µM 3 h vs DMSO
[9] = sheet Merged, SKBR3 cells, 11 0.5 µM 3 h vs with PU-H71 10 µM

## CC(=O)Oc1ccc2c(c1)Oc1cc(OC(C)=O)ccc1C21OC(=O)c2cc(C(=O)NCCOCCOCCNC(=O)CCCC(=O)N(CC#N)S(=O)(=O)c3ccc(C(=O)NCCCn4c(Sc5cc6c(cc5I)OCO6)nc5c(N)ncnc54)cc3)ccc21 [compound 11]
[1]; Exp3, SLC25A6
  Abundance Ratio: (11) / (11 with PU-H71): 0.576
  Abundance Ratio: (11) / (DMSO): 5.78
  Abundances (Grouped): 11: 626.5
  Abundances (Grouped): 11 with PU-H71: 1087.4
[1]; [6]
  Abundance Ratio: (11) / (DMSO): 5.287
[1]; [7]
  Abundance Ratio: (11) / (11 with PU-H71): 0.613
[1]; sheet Exp2, SLC25A6
  Abundance Ratio: (11) / (11 with PU-H71): 0.601
  Abundance Ratio: (11) / (DMSO): 6.595
  Abundances (Grouped): 11: 579
  Abundances (Grouped): 11 with PU-H71: 963.9
[1]; [8]
  Abundance Ratio: (11) / (DMSO): 5.939
[1]; [9]
  Abundance Ratio: (11) / (11 with PU-H71): 0.586
[2]; [6]
  Abundance Ratio: (11) / (DMSO): 2.538
[2]; [7]
  Abundance Ratio: (11) / (11 with PU-H71): 0.793
[2]; sheet Exp2, DECR1
  Abundance Ratio: (11) / (11 with PU-H71): 0.758
  Abundance Ratio: (11) / (DMSO): 1.823
  Abundances (Grouped): 11: 59.8
[2]; sheet Exp2, DECR1, with PU-H71
  Abundances (Grouped): 11 with PU-H71: 78.9
[2]; [8]
  Abundance Ratio: (11) / (DMSO): 2.151
[2]; [9]
  Abundance Ratio: (11) / (11 with PU-H71): 0.775
[3]; Exp3, LDHA
  Abundance Ratio: (11) / (11 with PU-H71): 0.709
  Abundance Ratio: (11) / (DMSO): 4.426
  Abundances (Grouped): 11: 517.9
  Abundances (Grouped): 11 with PU-H71: 730.3
[3]; [6]
  Abundance Ratio: (11) / (DMSO): 4.186
[3]; [7]
  Abundance Ratio: (11) / (11 with PU-H71): 0.705
[3]; sheet Exp2, LDHA
  Abundance Ratio: (11) / (11 with PU-H71): 0.702
  Abundance Ratio: (11) / (DMSO): 3.79
  Abundances (Grouped): 11: 554.9
  Abundances (Grouped): 11 with PU-H71: 790.3
[3]; [8]
  Abundance Ratio: (11) / (DMSO): 4.186
[3]; [9]
  Abundance Ratio: (11) / (11 with PU-H71): 0.705
[4]; Exp3, DSP
  Abundance Ratio: (11) / (11 with PU-H71): 0.922
  Abundance Ratio: (11) / (DMSO): 1.358
  Abundances (Grouped): 11: 44.8
  Abundances (Grouped): 11 with PU-H71: 48.6
[4]; sheet Exp2, DSP
  Abundance Ratio: (11) / (11 with PU-H71): 1.054
  Abundance Ratio: (11) / (DMSO): 1.067
  Abundances (Grouped): 11: 43.1
  Abundances (Grouped): 11 with PU-H71: 40.9
[4]; [8]
  Abundance Ratio: (11) / (DMSO): 1.203
[4]; [9]
  Abundance Ratio: (11) / (11 with PU-H71): 0.986
[5]; Exp3, ALB
  Abundance Ratio: (11) / (11 with PU-H71): 0.706
  Abundance Ratio: (11) / (DMSO): 1.152
  Abundances (Grouped): 11: 132.6
  Abundances (Grouped): 11 with PU-H71: 187.7
[5]; [6]
  Abundance Ratio: (11) / (DMSO): 0.969
[5]; [7]
  Abundance Ratio: (11) / (11 with PU-H71): 0.846
[5]; sheet Exp2, ALB
  Abundance Ratio: (11) / (11 with PU-H71): 0.796
  Abundance Ratio: (11) / (DMSO): 0.967
  Abundances (Grouped): 11: 219.9
  Abundances (Grouped): 11 with PU-H71: 276.3
[5]; [8]
  Abundance Ratio: (11) / (DMSO): 0.969
[5]; [9]
  Abundance Ratio: (11) / (11 with PU-H71): 0.846
